Reference: US20100247579A1, “THERAPEUTIC AGENT FOR CANCER” (priority 2007, published 2010)

Experiments:
Type in all cases: in vivo, C57BL/6 mice
CD3e^+ T cells in blood [1] = test: T cell count in blood after CPA and T cell transfer, syngeneic tumor model C57BL/6-hB16F10; details: day 6 after cell administration; group A defined as 100%; CPA 100 mg/kg i.p. day 4
Procedure: Evaluation of the lymphocyte count was effected by measuring the leukocyte count and the T cell count contained in the blood sample collected from the mouse tail vein. A volume of 22 μL of the blood was collected into a 0.5 mL tube containing 3 μL of heparin sodium (manufactured by Mitsubishi Wellpharma Inc.) per one mouse. An aliquote of 15 μL was taken from the blood sample, added to a mixed solution of 14 μL of Flow-Count (manufactured by Beckman Coulter Inc.) and 0.5 μL of hamster anti-mouse CD3e FITC (manufactured by eBioscience Inc.), and the mixture was treated for 15 minutes. Thereafter, the erythrocytes were hemolysed with a low isotonic solution, and subjected to flow cytometry to calculate the rate of T cells and the recovery rate of T cells, with the CD3e^+ cells being as the T cells. […] […] Moreover, the recovery rate of the T cells was determined to be a ratio of the number of the T cells on day 4 after the cell administration relative to the number of the T cells immediately before the cell administration.
In a similar manner to item (5) of Example 1, expansion of mouse T cell population was carried out.
Using the mouse T cells which had been expanded in item (1) of Example 11, separation of the naive T-like cells and the effector T-like cells was performed similarly to item (2) of Example 10. […]

hB16F10 [2] = test: Antitumor activity (tumor size) after CPA and T cell transfer, syngeneic tumor model C57BL/6-hB16F10; details: day 11 after tumor inoculation; CPA 100 mg/kg i.p. day 4
Procedure: On the next day, individual mouse T cells prepared in item (2) of Example 11 was prepared with an RPMI 1640 medium to a density of 3.75×10^8 cells/mL, and the naive T-like cells and the effector T-like cells in 0.2 mL each were administered via the tail veins to each individual of group C and group D, respectively. In addition, the RPMI 1640 medium was administered to each individual of group A and group B in 0.2 mL each via the tail veins.
However, the tumor size was determined on days 11 and 13 after the tumor inoculation.

CD3e^+ T cells in blood [3] = test: T cell count in blood after MMC and T cell transfer, syngeneic tumor model C57BL/6-hB16F10
Procedure: In a similar manner to item (5) of Example 1, expansion of mouse T cells was carried out, however, the human CH-296 was not used, and the cells on day 6 of culture were collected. The cells were subjected to each experiment.
The cells obtained in item (1) of Example 10 were collected to take a required amount, and centrifuged at 500×g for 5 minutes at room temperature to remove the supernatant. Thereafter, the cells were suspended in DPBS containing 0.5% BSA and 2 mM disodium ethylenediaminetetraacetate (hereinafter referred to as 0.5% BSA/DPBS) to a density of 1.11×10^8 cells/mL. CD62L ([…]) microbeads (mouse) (manufactured by MACS) were added to the cell solution in 10 μL per cell count of 1×10^7 cells, and incubated for 15 minutes while stirring sometimes in a dark place at 4° C. Then, to the cell solution was added 1 mL of 0.5% BSA/DPBS per cell count of 1×10^7 cells, and the mixture was centrifuged at 500×g for 5 minutes at room temperature to remove the supernatant. After that, 0.5 mL of 0.5% BSA/DPBS per cell count of 1×10^8 cells was added thereto, suspended sufficiently, and allowed to stand on ice to afford a CD62L microbeads target cell solution. An LS column (manufactured by MACS, hereinafter referred to as a separation column) was provided to a VarioMACS (trademark) separator (manufactured by MACS, hereinafter referred to as a separation apparatus) and rinsed with 3 mL of 0.5% BSA/DPBS. The CD62L microbeads-labeled cell solution was added to the column for elution and further rinsed with 9 mL of 0.5% BSA/DPBS to collect an eluate, thereby obtaining CD62L^− cells as effector T-like cells. The column was removed from the separation apparatus, and CD62L^+ cells were collected as naive T-like cells by extrusion with a plunger attached to the separation apparatus after addition of 5 mL of a buffer.
Hair removal of about 9 cm^2 in the right inguina of 7-week old female C57BL/6 mice was effected under anesthesia, and 0.1 mL of hB16F10 suspended in an RPMI 1640 medium to a density of 4×10^6 cells/mL was subcutaneously administered to the mice. […]

hB16F10 [4] = test: Antitumor activity (tumor size) after MMC and T cell transfer, syngeneic tumor model C57BL/6-hB16F10; details: day 14 after tumor inoculation; product of major and minor diameter
Procedure: Hair removal of about 9 cm^2 in the right inguina of 7-week old female C57BL/6 mice was effected under anesthesia, and 0.1 mL of hB16F10 suspended in an RPMI 1640 medium to a density of 4×10^6 cells/mL was subcutaneously administered to the mice. Thereafter, group settings were carried out as follows. Group A was set to an untreated group, group B was set to an MMC alone administration group, group C was set to a combinatorial MMC and naive T-like cell administration group, and group D was set to a combinatorial MMC and effector T-like cell administration group. On days 3 and 4 after tumor inoculation, 0.2 mL of a saline (manufactured by Otsuka Pharmaceutical Co., Ltd.) was intraperitoneally administered to group A and the MMC at a dose of 2 mg/kg was intraperitoneally administered to other groups. On day 6 after the tumor inoculation, individual mouse T cells prepared in item (2) of Example 10 were prepared with an RPMI 1640 medium to a density of 5×10^8 cells/mL. The naive T-like cells and the effector T-like cells in 0.2 mL each were respectively administered to each individual of group C and group D via the tail veins. […]
In order to assay the antitumor activity in the evaluation system performed in item (3) of Example 10, a tumor size in each individual on day 14 after the tumor inoculation was determined with an electronic caliper. […]

Row | Structure (SMILES) | Rate of T cells (%) (CD3e^+ T cells in blood [1]) | Tumor Size (mm^2) On day 11 (hB16F10 [2]) [mm^2] | Rate of T Cells On Day 4 after Cell Administration (CD3e^+ T cells in blood [3]; group A (untreated) defined as 100%, MMC 2 mg/kg i.p. days 3 and 4, cells via tail vein day 6) [%] | Rate of T Cells Immediately before Cell Administration (CD3e^+ T cells in blood [3]; group A (untreated) defined as 100%, MMC 2 mg/kg i.p. on days 3 and 4 after tumor inoculation) [%] | Recovery Rate of T Cells (CD3e^+ T cells in blood [3]; ratio of T cell number on day 4 after cell administration to number immediately before) | Tumor Size (mm^2) (hB16F10 [4])
1 | O=P1(N(CCCl)CCCl)NCCCO1 (stereo not drawn) [CPA, cyclophosamide] | 52.2 | 32.6 | – | – | – | –
2 | CO[C@@]12[C@H](COC(N)=O)C3=C(C(=O)C(C)=C(N)C3=O)N1C[C@@H]1N[C@@H]12 [MMC, mitomycin C] | – | – | 118.2 | 84.1 | 1.4 | 82.5
